From patent US9422240B2, “Partially saturated nitrogen-containing heterocyclic compound” (TAISHO PHARMACEUTICAL CO., LTD, priority 2012, dated 2016)
Counter-ions that a name gives are not always drawn. Like-named read-outs stand apart in the source and are kept apart here.

Biological target: human PHD2 (Homo sapiens (Human), UniProt Q9GZT9)
Test: Test 2: human PHD2 inhibitory activity, fluorescence polarization assay of HIF-1α peptide proline hydroxylation
Assay type: biochemical
Settings: read-out: Percent inhibition (% at 1 μM)
In short: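 Enzyme from lysate of cells expressing human PHD2 (NM_022051), 40 ng/well, added to compound and 19-residue HIF-1α peptide substrate; 20 min at 30° C., EDTA quench. Prolyl hydroxylation detected by HIF-OH antibody binding via fluorescence polarization; inhibition relative to compound-free wells.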

[1] = test compound's concentration 1 μM, Test 2, fluorescence polarization assay

Sequence of human PHD2 (Q9GZT9 whole entry): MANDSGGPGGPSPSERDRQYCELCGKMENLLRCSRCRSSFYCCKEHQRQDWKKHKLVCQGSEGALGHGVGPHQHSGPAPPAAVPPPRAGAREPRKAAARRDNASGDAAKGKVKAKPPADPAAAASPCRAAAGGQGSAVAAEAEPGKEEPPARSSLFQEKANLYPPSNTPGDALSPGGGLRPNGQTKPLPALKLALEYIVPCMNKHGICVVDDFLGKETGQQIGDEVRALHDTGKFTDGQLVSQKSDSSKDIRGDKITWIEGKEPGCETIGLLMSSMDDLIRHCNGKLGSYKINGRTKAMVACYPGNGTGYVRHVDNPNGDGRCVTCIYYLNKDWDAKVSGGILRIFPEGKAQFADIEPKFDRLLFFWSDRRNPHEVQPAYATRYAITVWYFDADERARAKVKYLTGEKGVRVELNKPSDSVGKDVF

SMILES	inhibition at 1 µM [1] [%]	inhibition at 1 µM [%]
COc1ncc(-c2ccc(CN3CCC(O)=C(C(=O)NCC(=O)O)C3=O)cc2)s1 [Ex. 2-42]	96	–
O=C(O)CNC(=O)C1=C(O)CCN(Cc2ccc(-c3cnc(O)s3)cc2)C1=O [Ex. 2-43]	95	–
Cc1ccc(-c2ccc(CN3CCC(O)=C(C(=O)NCC(=O)O)C3=O)nc2)cc1 [Ex. 2-44]	96	–
Cc1ccc(-c2ccc(CN3CCC(O)=C(C(=O)NCC(=O)O)C3=O)cn2)cc1 [Ex. 2-45]	95	–
O=C(O)CNC(=O)C1=C(O)CCN(Cc2ccc(-c3ccc(Cl)cc3)nc2)C1=O [Ex. 2-46]	93	–
Cc1ccc(-c2ccc(CN3CCC(O)=C(C(=O)NCC(=O)O)C3=O)cc2)s1 [Ex. 2-47]	100	–
O=C(O)CNC(=O)C1=C(O)CCN(Cc2ccc(-c3ccc(C4CC4)cc3)nc2)C1=O [Ex. 2-48]	103	–
O=C(O)CNC(=O)C1=C(O)CCN(Cc2ccc(-c3ccc(C4CC4)cc3)cc2)C1=O [Ex. 2-49]	93	–
O=C(O)CNC(=O)C1=C(O)CCN(Cc2ccc(-c3ccc(C4CC4)cc3)cn2)C1=O [Ex. 2-50]	99	–
COc1cccc(-c2ccc(CN3CCC(O)=C(C(=O)NCC(=O)O)C3=O)cn2)c1 [Ex. 2-51]	97	–
COc1ccccc1-c1ccc(CN2CCC(O)=C(C(=O)NCC(=O)O)C2=O)cn1 [Ex. 2-52]	95	–
COc1cncc(-c2ccc(CN3CCC(O)=C(C(=O)NCC(=O)O)C3=O)cc2)c1 [Ex. 2-53]	97	–
COc1ccncc1-c1ccc(CN2CCC(O)=C(C(=O)NCC(=O)O)C2=O)cc1 [Ex. 2-54]	87	–
NS(=O)(=O)c1ccc(-c2ccc(CN3CCC(O)=C(C(=O)NCC(=O)O)C3=O)cc2)cc1 [Ex. 2-55, N-({4-Hydroxy-2-oxo-1-[(4′-sulfamoyl-4-biphenylyl)methyl]-1,2,5,6-tetrahydro-3-pyridinyl}carbonyl)glycine]	97	–
CS(=O)(=O)c1ccc(-c2ccc(CN3CCC(O)=C(C(=O)NCC(=O)O)C3=O)cc2)cn1 [Ex. 2-56]	92	–
O=C(O)CNC(=O)C1=C(O)CCN(Cc2ccc(-c3ccc(S(=O)(=O)NCCO)cc3)cc2)C1=O [Ex. 2-57]	94	–
O=C(O)CNC(=O)C1=C(O)CCN(Cc2ccc(-c3ccc(C(=O)O)nc3)cc2)C1=O [Ex. 2-58]	92	–
Nc1ccc(-c2ccc(CN3CCC(O)=C(C(=O)NCC(=O)O)C3=O)cc2)cn1 [Ex. 2-59]	97	–
O=C(O)CNC(=O)C1=C(O)CCN(Cc2ccc(-c3ccc(O)nc3)cc2)C1=O [Ex. 2-60]	96	–
Nc1ncc(-c2ccc(CN3CCC(O)=C(C(=O)NCC(=O)O)C3=O)cc2)cn1 [Ex. 2-61]	92	–
O=C(O)CNC(=O)C1=C(O)CCN(Cc2ccc(O)cc2)C1=O [Ex. 4-3, N-{[4-Hydroxy-1-(4-hydroxybenzyl)-2-oxo-1,2,5,6-tetrahydro-3-pyridinyl]carbonyl}glycine]	72	–
C[C@H]1CC(O)=C(C(=O)NCC(=O)O)C(=O)N1Cc1ccc(OCC2CC2)cc1 [Ex. 6-2, N-({(6S)-1-[4-(Cyclopropylmethoxy)benzyl]-4-hydroxy-6-methyl-2-oxo-1,2,5,6-tetrahydro-3-pyridinyl}carbonyl)glycine sodium salt]	–	77

More lines, main results first:

inhibition at 1 µM [1] [%]	SMILES	inhibition at 1 µM [%]
91	O=C(O)CNC(=O)C1=C(O)C2(CCCC2)N(Cc2ccc(-c3ccccc3)cc2)C1=O [Ex. 6-1, N-{[1-(4-Biphenylylmethyl)-4-hydroxy-2-oxo-1-azaspiro[4.4]non-3-en-3-yl]carbonyl}glycine]	–
96	O=C(O)CNC(=O)C1=C(O)C2(CCC2)N(Cc2ccc(-c3ccccc3)cc2)C1=O [Ex. 6-3]	–
10	CC1C(O)=C(C(=O)NCCC(=O)O)C(=O)N1Cc1ccc(-c2ccccc2)cc1 (centres unmarked) [Ex. 6-4]	–
97	CC1C(O)=C(C(=O)NCC(=O)O)C(=O)N1Cc1ccc(Oc2ccc(C(F)(F)F)cn2)cc1 (centres unmarked) [Ex. 6-5]	–
87	CC1(C)C(O)=C(C(=O)NCC(=O)O)C(=O)N1Cc1ccc(Oc2ccc(C(F)(F)F)cn2)cc1 [Ex. 6-6]	–
86	O=C(O)CNC(=O)C1=C(O)CN(Cc2ccc(OCC3CC3)cc2)C1=O [Ex. 6-7]	–
83	CC1C(O)=C(C(=O)NCC(=O)O)C(=O)N1Cc1ccc(OCC2CC2)cc1 (centres unmarked) [Ex. 6-8]	–
85	CC1(C)C(O)=C(C(=O)NCC(=O)O)C(=O)N1Cc1ccc(OCC2CC2)cc1 [Ex. 6-9]	–
76	O=C(O)CNC(=O)C1=C(O)C[C@H](c2ccccc2)N(Cc2ccc(OCC3CC3)cc2)C1=O [Ex. 6-10]	–
73	O=C(O)CNC(=O)C1=C(O)C[C@@H](c2ccccc2)N(Cc2ccc(OCC3CC3)cc2)C1=O [Ex. 6-11]	–
67	CC1CC(O)=C(C(=O)NCC(=O)O)C(=O)N1Cc1ccc(OCC2CC2)cc1 (centres unmarked) [Ex. 6-12]	–
81	O=C(O)CNC(=O)C1=C(O)CC2(CCOCC2)N(Cc2ccc(OCC3CC3)cc2)C1=O [Ex. 6-13]	–
80	O=C(O)CNC(=O)C1=C(O)CC2(COC2)N(Cc2ccc(OCC3CC3)cc2)C1=O [Ex. 6-14]	–
55	NC(=O)[C@H]1CC(O)=C(C(=O)NCC(=O)O)C(=O)N1Cc1ccc(OCC2CC2)cc1 [Ex. 6-15]	–
26	NC(=O)[C@@H]1CC(O)=C(C(=O)NCC(=O)O)C(=O)N1Cc1ccc(OCC2CC2)cc1 [Ex. 6-16]	–
32	CC1(C)CC(O)=C(C(=O)NCC(=O)O)C(=O)N1CC1CCN(c2ncccn2)CC1 [Ex. 6-17]	–
24	CC1(C)CC(O)=C(C(=O)NCC(=O)O)C(=O)N1CC1CCN(C(=O)CC2CC2)CC1 [Ex. 6-18]	–
72	O=C(O)CNC(=O)C1=C(O)C[C@H](c2cccnc2)N(Cc2ccc(OCC3CC3)cc2)C1=O [Ex. 6-19]	–
84	O=C(O)CNC(=O)C1=C(O)C[C@@H](c2cccnc2)N(Cc2ccc(OCC3CC3)cc2)C1=O [Ex. 6-20]	–
85	O=C(O)CNC(=O)C1=C(O)C[C@@H](Cc2ccccc2)N(Cc2ccc(OCC3CC3)cc2)C1=O [Ex. 6-21]	–
88	O=C(O)CNC(=O)C1=C(O)C[C@H](Cc2ccccc2)N(Cc2ccc(OCC3CC3)cc2)C1=O [Ex. 6-22]	–
85	O=C(O)CNC(=O)C1=C(O)C2(CCCCC2)CN(Cc2ccc(OCC3CC3)cc2)C1=O [Ex. 6-23]	–

inhibition at 1 µM [1] [%]	SMILES	inhibition at 1 µM [%]
78	O=C(O)CNC(=O)C1=C(O)CC2(CCCCC2)N(Cc2ccc(OCC3CC3)cc2)C1=O [Ex. 6-24]	–
49	CC1(C)CC(O)=C(C(=O)NCC(=O)O)C(=O)N1Cc1ccc(OCC(N)=O)cc1 [Ex. 6-25]	–
16	CC1(C)CC(O)=C(C(=O)NCC(=O)O)C(=O)N1CC1CCN(Cc2ccccc2)CC1 [Ex. 6-26]	–
51	CC(C)[C@H]1CC(O)=C(C(=O)NCC(=O)O)C(=O)N1Cc1ccc(OCC2CC2)cc1 [Ex. 6-27]	–
42	CC(C)[C@@H]1CC(O)=C(C(=O)NCC(=O)O)C(=O)N1Cc1ccc(OCC2CC2)cc1 [Ex. 6-28]	–
69	CC1(C)CC(O)=C(C(=O)NCC(=O)O)C(=O)N1Cc1ccc(OCC2CC2)nc1 [Ex. 6-29]	–
45	O=C(O)CNC(=O)C1=C(O)C[C@H](CO)N(Cc2ccc(OCC3CC3)cc2)C1=O [Ex. 6-30]	–
44	O=C(O)CNC(=O)C1=C(O)C[C@@H](CO)N(Cc2ccc(OCC3CC3)cc2)C1=O [Ex. 6-31]	–
4	CC1(C)CC(O)=C(C(=O)NCC(=O)O)C(=O)N1CC1CN(c2ncccn2)C1 [Ex. 6-32]	–
68	CC1(C)CC(O)=C(C(=O)NCC(=O)O)C(=O)N1Cc1ccc(OCC2CC2)nn1 [Ex. 6-33]	–
70	COC[C@@H]1CC(O)=C(C(=O)NCC(=O)O)C(=O)N1Cc1ccc(OCC2CC2)cc1 [Ex. 6-34]	–
60	CC1(C)CC(O)=C(C(=O)NCC(=O)O)C(=O)N1Cc1cnc(OCC2CC2)cn1 [Ex. 6-35]	–
30	CN(C)C[C@@H]1CC(O)=C(C(=O)NCC(=O)O)C(=O)N1Cc1ccc(OCC2CC2)cc1 [Ex. 6-36]	–
97	O=C(O)CNC(=O)C1=C(O)CC2(CCN(C(=O)c3ccccc3)CC2)N(Cc2ccc(-c3ccccc3)cc2)C1=O [Ex. 7-1, N-{[9-Benzoyl-1-(4-biphenylylmethyl)-4-hydroxy-2-oxo-1,9-diazaspiro[5.5]undec-3-en-3-yl]carbonyl}glycine]	–
88	O=C(O)CNC(=O)C1=C(O)CC2(CCN(Cc3ccccc3)CC2)N(Cc2ccc(-c3ccccc3)cc2)C1=O [Ex. 7-2, N-{[9-Benzyl-1-(4-biphenylylmethyl)-4-hydroxy-2-oxo-1,9-diazaspiro[5.5]undec-3-en-3-yl]carbonyl}glycine trifluoroacetate]	–
65	O=C(O)CNC(=O)C1=C(O)CC2(CCN(C(=O)c3ccccc3)CC2)N(Cc2ccccc2)C1=O [Ex. 7-3, N-[(9-Benzoyl-1-benzyl-4-hydroxy-2-oxo-1,9-diazaspiro[5.5]undec-3-en-3-yl)carbonyl]glycine]	–
16	COc1ccc(CN2CCC(O)=C(C(=O)NCC(=O)NO)C2=O)cc1 [Ex. 8-1, 4-Hydroxy-N-[2-(hydroxyamino)-2-oxoethyl]-1-(4-methoxybenzyl)-2-oxo-1,2,5,6-tetrahydro-3-pyridinecarboxamide]	–
29	COc1ccc(CN2CCC(O)=C(C(=O)NCCC(=O)O)C2=O)cc1 [Ex. 9-1, N-{[4-Hydroxy-1-(4-methoxybenzyl)-2-oxo-1,2,5,6-tetrahydro-3-pyridinyl]carbonyl}-β-alanine]	–
23	COc1ccc(CN2CCC(O)=C(C(=O)NCCCC(=O)O)C2=O)cc1 [Ex. 9-2]	–
1	COc1ccc(CN2CCC(O)=C(C(=O)N[C@H](C)C(=O)O)C2=O)cc1 [Ex. 9-3]	–
42	COc1ccc(CN2CCC(O)=C(C(=O)N[C@@H](C)C(=O)O)C2=O)cc1 [Ex. 9-4]	–
